According to patent US9751885B2, “Cyclopropanamine compound and use thereof” (Takeda Pharmaceutical Company Limited, priority 2012, dated 2017):
Structures can show the parent of a compound that is named as a salt. Where two headings read alike, the source gives them in different places.

How the values were obtained:
[1] = tested on: white blood cell number, red blood cell number, platelet number; assay: Evaluation of blood cell number in mouse; assay type: in vivo; conditions: oral, Day 2 after administration
Method: Evaluation of Blood Cell Number in Mouse
(§1) Male ICR mice (hereinafter mice) were acclimated for at least one week in a rearing facility. The mice were raised in a rearing room with controlled temperature and humidity under a 12:12 hour light-dark cycle, and allowed free ingestion of feed and water.
The compounds were suspended in 0.5% methylcellulose/0.02% citric acid/distilled water and orally administered. All compounds were administered to the mice at a dose of 1 mg/kg, 10 mg/kg, 50 mg/kg or 100 mg/kg (body weight). On Day 2 after the administration of the compound, the whole blood was collected.
Using Sysmex XT-1800i (Sysmex Corporation), the white blood cell number, red blood cell number, and platelet number in the collected whole blood per unit volume were measured. The influence of each compound on each blood cell number was determined by comparing the number with the mean of each blood cell number of the mouse without administration of the compound (control group), and the numerical value of each blood cell number of a mouse with the administration of the compound is shown in percentage. percentage (%) of blood cell number of compound administration group as compared to control group=(mean blood cell number of compound administration group mean blood cell number of compound non-administration group)×100

[2] = Evaluation of hippocampal distribution in mouse; assay type: in vivo; conditions: male ICR mice, 10 mg/kg oral; for concentration at 0.5 h / Kp at 0.5 h: 0.5 hr after administration; for concentration at 1 h / Kp at 1 h: 1 hr after administration
Method: Evaluation of Hippocampal Distribution in Mouse
as §1
The compounds were suspended in 0.5% methylcellulose/0.02% citric acid/distilled water and orally administered. All compounds were administered to the mice at a dose of 10 mg/kg (body weight).
Blood samples were collected at 0.5 hr, or 1 hr, or 1.5 hr from compound administration, and the hippocampus was isolated simultaneously. The plasma concentration and hippocampus concentration of each test compound were measured by the LC/MS/MS method, the ratio (hippocampus/plasma concentration ratio) was calculated, and distribution into hippocampus was evaluated.

[3] = hippocampus, read-out: hippocampus concentration (mean)
[4] = hippocampus/plasma, read-out: hippocampus/plasma concentration ratio (mean)
[5] = plasma, read-out: plasma concentration (mean)

Compound	platelet number, percentage of compound administration group compared to control group, mean ([1]; 10 mg/kg) [%]	red blood cell number, percentage of compound administration group compared to control group, mean ([1]; 10 mg/kg) [%]	white blood cell number, percentage of compound administration group compared to control group, mean ([1]; 10 mg/kg) [%]	platelet number, percentage of compound administration group compared to control group, mean ([1]; 100 mg/kg) [%]	red blood cell number, percentage of compound administration group compared to control group, mean ([1]; 100 mg/kg) [%]	white blood cell number, percentage of compound administration group compared to control group, mean ([1]; 100 mg/kg) [%]	concentration at 0.5 h [2, 3] [ng/g]	Kp at 0.5 h [2, 4]	concentration at 0.5 h [2, 5] [ng/mL]	concentration at 1.5 h ([2]; hippocampus, 1.5 hr after administration, read-out: hippocampus concentration (mean)) [ng/g]	Kp at 1.5 h ([2]; hippocampus/plasma, 1.5 hr after administration, read-out: hippocampus/plasma concentration ratio (mean))	concentration at 1.5 h ([2]; plasma, 1.5 hr after administration, read-out: plasma concentration (mean)) [ng/mL]	concentration at 1 h [2, 3] [ng/g]	Kp at 1 h [2, 4]	concentration at 1 h [2, 5] [ng/mL]
O=C(NC1CCOCC1)c1cccc([C@@H]2C[C@H]2NC2CCC(F)(F)CC2)c1 (relative stereo) [Example 178, 3-(trans-2-((4,4-difluorocyclohexyl)amino)cyclopropyl)-N-(tetrahydro-2H-pyran-4-yl)benzamide hydrochloride]	90.2	98.5	93.2	85.2	98.9	84.5	546	0.52	1050	–	–	–	–	–	–
Cc1nnc(NC(=O)c2cc([C@@H]3C[C@H]3NC3CCC3)ccc2F)s1 (relative stereo) [Example 183, 5-(trans-2-(cyclobutylamino)cyclopropyl)-2-fluoro-N-(5-methyl-1,3,4-thiadiazol-2-yl)benzamide dihydrochloride]	96.4	98.5	88.1	86.6	97.5	114.9	–	–	–	884	1.35	651	–	–	–
Cc1nnc(NC(=O)c2ccc(C)c([C@@H]3C[C@H]3NC3CCOCC3)c2)s1 (relative stereo) [Example 185, 4-methyl-N-(5-methyl-1,3,4-thiadiazol-2-yl)-3-(trans-2-(tetrahydro-2H-pyran-4-ylamino)cyclopropyl)benzamide hydrochloride]	90.4	102.0	88.0	84.7	100.7	129.9	581	0.58	1020	–	–	–	–	–	–
Cn1cc(NC(=O)c2cccc([C@@H]3C[C@H]3NC3CCC(F)(F)CC3)c2)cn1 (relative stereo) [Example 205, 3-(trans-2-((4,4-difluorocyclohexyl)amino)cyclopropyl)-N-(1-methyl-1H-pyrazol-4-yl)benzamide dihydrochloride]	114.7	97.8	81.6	110.8	104.0	80.9	–	–	–	–	–	–	437	0.47	920
Cc1cc(NC(=O)c2cccc([C@@H]3C[C@H]3NC3CCC(F)(F)CC3)c2)n(C)n1 (relative stereo) [Example 215, 3-(trans-2-((4,4-difluorocyclohexyl)amino)cyclopropyl)-N-(1,3-dimethyl-1H-pyrazol-5-yl)benzamide dihydrochloride]	100.7	98.4	113.3	91.2	99.8	124.7	481	0.31	1570	–	–	–	–	–	–
Cc1nnc(NC(=O)c2cc([C@@H]3C[C@H]3NC3CCC(F)(F)CC3)ccc2F)s1 (relative stereo) [Example 223, 5-(trans-2-((4,4-difluorocyclohexyl)amino)cyclopropyl)-2-fluoro-N-(5-methyl-1,3,4-thiadiazol-2-yl)benzamide dihydrochloride]	94.8	101.2	114.5	98.9	100.4	121.7	2390	1.69	1400	–	–	–	–	–	–
Cc1cc(NC(=O)c2cccc([C@@H]3C[C@H]3NC3CCC3)c2)no1 (relative stereo) [Example 232, 3-(trans-2-(cyclobutylamino)cyclopropyl)-N-(5-methyl-1,2-oxazol-3-yl)benzamide hydrochloride]	102.4	100.4	97.3	93.5	99.3	92.4	–	–	–	–	–	–	572	3.66	154

Second part, the compound after the results:

platelet number, percentage of compound administration group compared to control group, mean ([1]; 10 mg/kg) [%]	red blood cell number, percentage of compound administration group compared to control group, mean ([1]; 10 mg/kg) [%]	white blood cell number, percentage of compound administration group compared to control group, mean ([1]; 10 mg/kg) [%]	platelet number, percentage of compound administration group compared to control group, mean ([1]; 100 mg/kg) [%]	red blood cell number, percentage of compound administration group compared to control group, mean ([1]; 100 mg/kg) [%]	white blood cell number, percentage of compound administration group compared to control group, mean ([1]; 100 mg/kg) [%]	concentration at 0.5 h [2, 3] [ng/g]	Kp at 0.5 h [2, 4]	concentration at 0.5 h [2, 5] [ng/mL]	concentration at 1.5 h ([2]; hippocampus, 1.5 hr after administration, read-out: hippocampus concentration (mean)) [ng/g]	Kp at 1.5 h ([2]; hippocampus/plasma, 1.5 hr after administration, read-out: hippocampus/plasma concentration ratio (mean))	concentration at 1.5 h ([2]; plasma, 1.5 hr after administration, read-out: plasma concentration (mean)) [ng/mL]	concentration at 1 h [2, 3] [ng/g]	Kp at 1 h [2, 4]	concentration at 1 h [2, 5] [ng/mL]	Compound
98.8	97.7	76.7	88.9	101.2	94.8	–	–	–	–	–	–	276	1.58	175	O=C(NC1CC(F)(F)C1)c1cccc([C@@H]2C[C@H]2NC2CCC(F)(F)CC2)c1 (relative stereo) [Example 234, N-(3,3-difluorocyclobutyl)-3-(trans-2-((4,4-difluorocyclohexyl)amino)cyclopropyl)benzamide hydrochloride]
99.1	101.1	75.7	96.6	97.8	93.0	216	1.04	204	–	–	–	–	–	–	Cc1cc(NC(=O)c2cccc([C@@H]3C[C@H]3NC3CCOCC3)c2)on1 (relative stereo) [Example 235, N-(3-methyl-1,2-oxazol-5-yl)-3-(trans-2-(tetrahydro-2H-pyran-4-ylamino)cyclopropyl)benzamide hydrochloride]
102.6	96.9	94.6	89.2	99.0	101.9	878	5.31	167	–	–	–	–	–	–	O=C(NC1CC(F)(F)C1)c1cc([C@@H]2C[C@H]2NCC2CC2)ccc1F (relative stereo) [Example 241, 5-(trans-2-((cyclopropylmethyl)amino)cyclopropyl)-N-(3,3-difluorocyclobutyl)-2-fluorobenzamide hydrochloride]
